Experimental data as given in article PMC7845544 (Frontiers in Pharmacology, 2021).
Values joined by “and” are separate entries in the source; they are usually repeats but may differ in a detail not shown here. Identical values can stand only once. “Also recorded” adds a separate entry of the source. Like-named read-outs stand apart in the source and are kept apart here.

Tests used:
CYP3A4 = CYP3A4 (Homo sapiens, UniProt P08684); experiment: CYP time dependent inhibition; format: in vitro ADME
rat granulosa cells = experiment: Rat granulosa cell assay measuring secreted estradiol; format: cell-based; settings: for % Response, estradiol, +EC20 FSH / EC50 / % Response, estradiol, No FSH: 24 h, mean ± SEM; for fold improvement of EC50 for estradiol production by low concentration of rec-hFSH: rec-hFSH 0.2 pM
Protocol: All animals were maintained and handled under IACUC approved procedures at the respective institutions providing contracted service for TocopheRx, following procedures previously approved by local (MA, United States) IACUC reviews ([Sriraman et al., 2014]; [Yu et al., 2014]). Ovarian follicular granulosa cells were isolated from rats implanted with DES pellets (1 mg/day; 7-days release) at ChemPartner (Shanghai, China). The pellets were implanted subcutaneously on 22 day old rats with trochar, employing aseptic techniques after isoflurane anesthesia. Animals were euthanized on post-op day 3, ovaries were excised, cleaned, and granulosa cells were isolated by repeated disruption of the follicle as described previously. Granulosa cells isolated from four to five rats were used to culture one 96-well plate and an equal number of cells was plated in each well. The cells were cultured overnight at 37°C in media containing 5% FBS.
After overnight culture, the media was replaced with serum free media containing 0.1% BSA and 100 nM androstenedione. […] After 24 h of treatment, supernatant was collected and estradiol concentration was determined by ELISA (DRG, Mountainside, NJ, United States). The optical densities of the estradiol ELISA were measured by Spectramax (Sunnyvale, CA, United States). The values were analyzed in Microsoft Excel and Graphpad Prism (San Diego, CA, United States).

hTSHR = target: T1, hTSHR (Homo sapiens, UniProt P16473); experiment: cAMP (HTRF) in CHO cells transfected with hTSHR; format: cell-based; settings: for Ratio of EC50 TSHR/FSHR: CHO assays; for EC50: compounds in presence of EC20 ligand (Figure 1 legend); for EC50 / % Response, CHO-hTSHR: mean ± SEM; for % Response, CHO-hTSHR: maximal cAMP vs maximal response of TSH
T1 construct: expressed in transfected cells
T1 sequence (P16473 21-764): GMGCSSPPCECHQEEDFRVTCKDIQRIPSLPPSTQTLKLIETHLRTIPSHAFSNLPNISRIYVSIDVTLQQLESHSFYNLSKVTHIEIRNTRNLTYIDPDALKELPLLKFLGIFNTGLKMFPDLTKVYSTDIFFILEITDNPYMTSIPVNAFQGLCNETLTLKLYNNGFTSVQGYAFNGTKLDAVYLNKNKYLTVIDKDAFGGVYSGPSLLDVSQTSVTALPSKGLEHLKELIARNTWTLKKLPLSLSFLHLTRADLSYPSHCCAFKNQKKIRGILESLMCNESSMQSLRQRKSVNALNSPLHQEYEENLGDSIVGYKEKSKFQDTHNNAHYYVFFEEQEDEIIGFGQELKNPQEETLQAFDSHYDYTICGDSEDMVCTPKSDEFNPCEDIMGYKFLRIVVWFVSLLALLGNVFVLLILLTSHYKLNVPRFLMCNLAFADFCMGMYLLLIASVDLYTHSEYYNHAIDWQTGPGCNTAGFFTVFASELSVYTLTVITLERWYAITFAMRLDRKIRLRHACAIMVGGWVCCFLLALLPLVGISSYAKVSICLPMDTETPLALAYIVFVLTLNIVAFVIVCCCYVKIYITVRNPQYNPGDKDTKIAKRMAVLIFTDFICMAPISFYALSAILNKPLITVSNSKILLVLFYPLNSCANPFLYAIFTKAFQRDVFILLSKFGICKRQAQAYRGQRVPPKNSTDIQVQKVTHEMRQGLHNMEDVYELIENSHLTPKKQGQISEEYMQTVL
Protocol: (§1) Chinese hamster ovary (CHO) cells transfected with hFSHR, hLHR or hTSHR were grown as described previously ([Kelton et al., 1992]; [Persani et al., 1993]; [Yu et al., 2014]). In brief, CHO-hFSHR and CHO-hTSHR were maintained in DMEM/F12 + 10% FBS in T150 culture flasks. The cells were cultured until they reached 70–80% confluence (three days) and were then used for assays or passaged. CHO-hLHR ([van de Lagemaat et al., 2009]; [Sriraman et al., 2014]) was cultured in MEM alpha (++) +10% FBS and G418, and passaged every three days. CHO-hFSHR or −hLHR or −hTSR cells (2,500/well) were plated in 5 µL of phenol red free DMEM/F12 + 1% FBS in 384 well solid white low volume plates (Greiner 784075) by Multidrop. […] The plates were incubated at 37°C for 1 h. After the incubation period, cAMP was measured by HTRF® (homogeneous time-resolved fluorescence) assay (CisBio, Bedford, MA). In brief, conditioned media were incubated with cryptate-labeled cAMP antibody and d2-labeled cAMP in lysis buffer for 1 h. Free cAMP produced by cells competes with cAMP-d2 for binding to the anti-cAMP cryptate. An increase in cellular cAMP leads to a decrease in fluorescence resonance energy transfer, which is detectable as a decrease in the emission at 665 nm, measured by Envision fluorescence reader (PerkinElmer, Waltham, MA). The readout was calculated fluorescence ratio (665/620 nm). Values given in percent (%) indicate the percent response at a certain concentration of agonist relative to the maximum response of the protein ligand standard.

hFSHR = target: T2, hFSHR (Homo sapiens, UniProt P23945); experiment: cAMP (HTRF) in CHO cells transfected with hFSHR; format: cell-based; settings: for EC50: compounds in presence of EC20 ligand (Figure 1 legend); for EC50 / % Response, CHO-hFSHR: mean ± SEM; for % Response, CHO-hFSHR: maximal cAMP vs maximal response of protein ligand FSH
T2 construct: expressed in transfected cells
T2 sequence (P23945 18-695): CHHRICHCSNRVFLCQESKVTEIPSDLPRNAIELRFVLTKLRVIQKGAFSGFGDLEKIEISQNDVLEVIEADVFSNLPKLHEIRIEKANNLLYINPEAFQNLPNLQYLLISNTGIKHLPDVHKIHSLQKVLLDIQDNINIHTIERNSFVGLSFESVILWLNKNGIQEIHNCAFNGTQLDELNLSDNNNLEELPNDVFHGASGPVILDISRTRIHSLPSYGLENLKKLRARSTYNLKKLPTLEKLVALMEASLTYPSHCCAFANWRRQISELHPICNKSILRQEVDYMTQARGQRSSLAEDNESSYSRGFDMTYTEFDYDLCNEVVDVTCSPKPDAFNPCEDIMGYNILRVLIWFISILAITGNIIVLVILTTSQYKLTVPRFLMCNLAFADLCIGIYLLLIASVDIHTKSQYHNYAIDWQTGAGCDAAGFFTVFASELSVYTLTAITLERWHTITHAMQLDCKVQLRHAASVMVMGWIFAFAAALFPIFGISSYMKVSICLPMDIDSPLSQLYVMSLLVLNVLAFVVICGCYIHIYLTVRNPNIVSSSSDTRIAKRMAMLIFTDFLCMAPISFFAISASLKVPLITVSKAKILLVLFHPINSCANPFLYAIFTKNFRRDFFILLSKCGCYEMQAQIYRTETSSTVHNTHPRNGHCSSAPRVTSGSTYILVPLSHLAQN
Protocol: as §1

immature SD rats = experiment: Superovulation assay in immature rats; format: in vivo, rat; settings: for minimal effective dose, cumulus oocyte complexes (COC): with low dose rec-hFSH (0.29 IU)
Protocol: Immature SD rats and B6C3F1 mice (both 18–21 day old females) were purchased from Charles-River laboratories (Wilmington, MA, United States and Shanghai, China). All animals were treated in accordance to Chempartner (Shanghai, China) or Embryotech (Haverhill, MA, United States) IACUC approved animal protocols. The animals were provided water and food ad libitum and housed under 12 h dark and 12 h light schedules.
Immature rats and mice were used to investigate the ability of the small molecules to induce follicular development and support ovulation as described elsewhere ([Steelman and Pohley, 1953]) with modifications ([Sriraman et al., 2014]). […] The isolated COC’s were treated with hyaluronidase and the total number of ovulated oocytes was determined microscopically.
Plasma concentrations of FSHR-AA were measured during superovulation assays, except for experiments where plasma was collected for estradiol measurements.

Rat pharmacokinetics = format: in vivo; settings: for Rat PK %F: oral bioavailability
Protocol: […] Blood samples were collected at serial time points from 5 min to 24 h. The circulating concentrations of the compound in plasma samples were analyzed by HPLC. PK parameters were determined with Phoenix WinNonlin software (Pharsight Corporation, Sunnyvale, CA, United States) using a non-compartmental model.

hLH/CGR = target: T3, hLH/CGR (Homo sapiens, UniProt P22888); experiment: cAMP (HTRF) in CHO cells transfected with hLH/CGR; format: cell-based; settings: for EC50: compounds in presence of EC20 ligand (Figure 1 legend); for EC50 / % Response, CHO-hLH/CGR: mean ± SEM; for % Response, CHO-hLH/CGR: maximal cAMP vs maximal response of hCG
T3 construct: expressed in transfected cells
T3 sequence (P22888 27-699): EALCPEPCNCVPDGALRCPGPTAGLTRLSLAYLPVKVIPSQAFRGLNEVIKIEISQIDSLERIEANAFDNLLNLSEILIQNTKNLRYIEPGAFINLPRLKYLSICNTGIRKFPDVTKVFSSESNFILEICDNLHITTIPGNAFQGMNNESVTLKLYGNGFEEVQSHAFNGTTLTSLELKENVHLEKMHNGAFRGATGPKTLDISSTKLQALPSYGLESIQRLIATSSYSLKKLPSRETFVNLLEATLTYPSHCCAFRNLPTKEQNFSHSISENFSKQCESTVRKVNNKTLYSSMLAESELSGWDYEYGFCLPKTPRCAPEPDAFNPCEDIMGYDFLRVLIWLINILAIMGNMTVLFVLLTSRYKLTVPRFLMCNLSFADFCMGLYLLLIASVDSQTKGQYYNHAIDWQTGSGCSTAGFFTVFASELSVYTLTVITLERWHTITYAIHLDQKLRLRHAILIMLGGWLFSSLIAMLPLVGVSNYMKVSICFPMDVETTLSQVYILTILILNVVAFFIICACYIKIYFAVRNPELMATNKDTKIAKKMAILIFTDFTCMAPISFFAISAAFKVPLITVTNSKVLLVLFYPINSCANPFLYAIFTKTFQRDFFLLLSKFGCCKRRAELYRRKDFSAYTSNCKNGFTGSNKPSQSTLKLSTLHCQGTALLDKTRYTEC
Protocol: as §1

[1] = +EC20 FSH, read-out: EC50 (M), estradiol, +EC20 FSH
[2] = No FSH, read-out: EC50 (M), estradiol, No FSH

Sequence of CYP3A4 (P08684 whole entry): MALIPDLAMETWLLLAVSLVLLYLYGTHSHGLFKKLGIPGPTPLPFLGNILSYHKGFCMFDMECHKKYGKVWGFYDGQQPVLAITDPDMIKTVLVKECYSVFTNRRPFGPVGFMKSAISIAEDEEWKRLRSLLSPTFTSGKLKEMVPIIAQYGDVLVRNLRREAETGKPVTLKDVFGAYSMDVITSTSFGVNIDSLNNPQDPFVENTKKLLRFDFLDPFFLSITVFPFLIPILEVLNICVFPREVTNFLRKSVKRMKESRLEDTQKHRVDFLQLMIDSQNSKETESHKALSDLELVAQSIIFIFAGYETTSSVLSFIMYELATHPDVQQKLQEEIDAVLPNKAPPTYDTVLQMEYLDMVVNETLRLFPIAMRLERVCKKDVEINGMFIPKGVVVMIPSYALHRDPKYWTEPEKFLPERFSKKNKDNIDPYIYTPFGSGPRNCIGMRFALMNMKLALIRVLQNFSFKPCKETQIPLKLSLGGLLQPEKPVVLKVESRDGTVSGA

Compound	CYP TDI (3A4) (CYP3A4)	% Response, estradiol, +EC20 FSH (rat granulosa cells; +EC20 FSH) [%]	EC50 (rat granulosa cells; [1]) [M]	% Response, estradiol, No FSH (rat granulosa cells; No FSH) [%]	EC50 (rat granulosa cells; [2]) [M]	fold improvement of EC50 for estradiol production by low concentration of rec-hFSH (rat granulosa cells) [fold]	Ratio of EC50 TSHR/FSHR (hTSHR)	EC50 (hTSHR) [nM]	% Response, CHO-hTSHR (hTSHR) [%]	EC50 (hFSHR) [nM]	% Response, CHO-hFSHR (hFSHR) [%]	minimal effective dose, cumulus oocyte complexes (COC) (immature SD rats; immature rat, oral) [mg/kg]	EC50 (hLH/CGR) [nM]	% Response, CHO-hLH/CGR (hLH/CGR) [%]	other results
COc1cc2c(cc1-c1cnn(CCO)c1)-c1c(c(C(=O)N(C)C(C)(C)C)nn1-c1cc(Cl)cc(Cl)c1)CO2 [TOP5300]	Negative	125 ± 12	1.75e-07	65 ± 6	8.68e-07	2	52	505	84.97 ± 0.85	9.72	98.4 ± 0.31	5	56.7	95.68 ± 0.37	number of COCs vs 1.16 IU rec-hFSH (immature SD rats; 50 mg/kg, oral, with 0.29 IU rec-hFSH): not significantly different from 1.16 IU rec-hFSHH; serum estradiol-17β production (immature SD rats; 5, 10 and 25 mg/kg, immature rat): followed the follicular stimulation response; follicular maturation with or without supplemental rec-hFSH (0.29 IU) (immature SD rats; immature rat, oral): full agonist; single daily dose (QD) vs twice daily (BID) administration, follicular maturation (immature SD rats; immature rat, oral gavage, with 0.29 IU FSH): stimulates similar follicular growth; also recorded: equally effective as twice daily administrations; Rat PK AUC (Rat pharmacokinetics; 10 mg/kg): 2,655 ng*h/ml; Rat PK Cmax (Rat pharmacokinetics; 10 mg/kg): 237 ng/mL; Rat PK T1/2 (Rat pharmacokinetics; 10 mg/kg): 5.1 h; Rat PK %F (Rat pharmacokinetics; 10 mg/kg): 20%
COc1cc(C(N)=O)cc(-c2cc3c(cc2OC)OCc2c(C(=O)N(C)C(C)(C)C)nn(-c4cc(Cl)cc(Cl)c4)c2-3)n1 [TOP5668]	Negative	117 ± 8	7.33e-08	93	1.82e-07	2	77	170	92.28 ± 0.88	2.2	100.75 ± 0.51	2.5	176	96.64 ± 0.61	fold more potent than TOP5300, rat granulosa cells (rat granulosa cells; estradiol production): 5 fold; fold more potent than TOP5300 in hFSHR-AA activity (hFSHR; CHO-hFSHR): 3-4 fold; fold more potent than TOP5300, superovulation dose response (immature SD rats; immature rat): approximately 2 fold; fold lower exposure than TOP5300 (Rat pharmacokinetics; mature rat pharmacokinetic models): 3-4 fold; Rat PK AUC (Rat pharmacokinetics; 5 mg/kg): 1,530 ng*h/ml; Rat PK Cmax (Rat pharmacokinetics; 5 mg/kg): 132 ng/mL; Rat PK T1/2 (Rat pharmacokinetics; 5 mg/kg): 2.4 h; Rat PK %F (Rat pharmacokinetics; 5 mg/kg): 5% and 5.4%; Ratio of EC50 LHR/FSHR (hLH/CGR; CHO assays): 80
